test system: common cockroach; assay: insecticidal activity against the common cockroach (abdominal injection, minimum lethal dose); format: in vivo; conditions: MLD = minimum lethal dose (moles/insect) at which two of three male adult common cockroaches became paralyzed or died; 1 to 10 μl of 1% by weight methanol solution injected into abdomen
Description: The insecticidal activity against the common cockroach was tested for the compounds of Examples 1 to 14 and the compound of Comparative Example 1. Methanol solutions containing 1% by weight of each compound were prepared. 1 to 10 μl of the methanol solution were injected into the abdomens of 3 male adult common cockroaches. The concentration at which two of the three adult insects became paralyzed or died, namely the minimum lethal dose (MLD: moles/insect) was then investigated.

Row | Compound | log (1/MLD)
1 | O=[N+]([O-])N=C1N(CCCCCCN2CCN(Cc3cnc(Cl)s3)C2=N[N+](=O)[O-])CCN1Cc1cnc(Cl)s1 [Exp. 14, 1,6-bis[1-(2-chloro-5-thiazolylmethyl)-2-nitroiminoimidazolidin-3-yl]hexane] | 7.56
2 | O=[N+]([O-])N=C1N(CCCCCCCCCN2CCN(Cc3ccc(Cl)nc3)C2=N[N+](=O)[O-])CCN1Cc1ccc(Cl)nc1 [Exp. 7, 1,9-bis[(6-chloronicotinyl)-2-nitroiminoimidazolidin-3-yl]nonane] | 8.56
3 | O=[N+]([O-])N=C1N(Cc2ccc(Cl)nc2)CCN1Cc1cccc(CN2CCN(Cc3ccc(Cl)nc3)C2=N[N+](=O)[O-])c1 [Exp. 12, 1,3-bis[(6-chloronicotinyl)-2-nitroiminoimidazolidin-3-yl]methylbenzene] | 7.71
4 | O=[N+]([O-])N=C1N(CCCCCCCN2CCN(Cc3ccc(Cl)nc3)C2=N[N+](=O)[O-])CCN1Cc1ccc(Cl)nc1 [Exp. 5, 1,7-bis[(6-chloronicotinyl)-2-nitroiminoimidazolidin-3-yl]heptane] | 8.55
5 | O=[N+]([O-])N=C1N(CCCN2CCN(Cc3ccc(Cl)nc3)C2=N[N+](=O)[O-])CCN1Cc1ccc(Cl)nc1 [Exp. 1, 1,3-bis[(6-chloronicotinyl)-2-nitroiminoimidazolidin-3-yl]propane] | 8.31
6 | O=[N+]([O-])N=C1N(CCCCCCCCCCN2CCN(Cc3ccc(Cl)nc3)C2=N[N+](=O)[O-])CCN1Cc1ccc(Cl)nc1 [Exp. 8, 1,10-bis[(6-chloronicotinyl)-2-nitroiminoimidazolidin-3-yl]decane] | 8.43
7 | O=[N+]([O-])N=C1N(CCN2CCN(Cc3ccc(Cl)nc3)C2=N[N+](=O)[O-])CCN1Cc1ccc(Cl)nc1 [Comp. Exp. 1, 1,2-bis[(6-chloronicotinyl)-2-nitroiminoimidazolidin-3-yl]ethane, reference compound] | 7.38
8 | O=[N+]([O-])N=C1N(CCCCCCN2CCN(Cc3ccc(Cl)nc3)C2=N[N+](=O)[O-])CCN1Cc1ccc(Cl)nc1 [Exp. 4, 1,6-bis[(6-chloronicotinyl)-2-nitroiminoimidazolidin-3-yl]hexane] | 8.65
9 | O=[N+]([O-])N=C1N(CCCCCCCCN2CCN(Cc3ccc(Cl)nc3)C2=N[N+](=O)[O-])CCN1Cc1ccc(Cl)nc1 [Exp. 6, 1,8-bis[(6-chloronicotinyl)-2-nitroiminoimidazolidin-3-yl]octane] | 8.35
10 | O=[N+]([O-])N=C1N(Cc2ccc(CN3CCN(Cc4ccc(Cl)nc4)C3=N[N+](=O)[O-])cc2)CCN1Cc1ccc(Cl)nc1 [Exp. 13, 1,4-bis[(6-chloronicotinyl)-2-nitroiminoimidazolidin-3-yl]methylbenzene] | 7.57
11 | O=[N+]([O-])N=C1N(CCCCN2CCN(Cc3ccc(Cl)nc3)C2=N[N+](=O)[O-])CCN1Cc1ccc(Cl)nc1 [Exp. 2, 1,4-bis[(6-chloronicotinyl)-2-nitroiminoimidazolidin-3-yl]butane] | 7.97
